As a reminder, the EC50 is the concentration at which the effect is half-maximal.

Structures are written as SMILES.

Sequence of recombinant IL4I1 (Q96RQ9 22-567): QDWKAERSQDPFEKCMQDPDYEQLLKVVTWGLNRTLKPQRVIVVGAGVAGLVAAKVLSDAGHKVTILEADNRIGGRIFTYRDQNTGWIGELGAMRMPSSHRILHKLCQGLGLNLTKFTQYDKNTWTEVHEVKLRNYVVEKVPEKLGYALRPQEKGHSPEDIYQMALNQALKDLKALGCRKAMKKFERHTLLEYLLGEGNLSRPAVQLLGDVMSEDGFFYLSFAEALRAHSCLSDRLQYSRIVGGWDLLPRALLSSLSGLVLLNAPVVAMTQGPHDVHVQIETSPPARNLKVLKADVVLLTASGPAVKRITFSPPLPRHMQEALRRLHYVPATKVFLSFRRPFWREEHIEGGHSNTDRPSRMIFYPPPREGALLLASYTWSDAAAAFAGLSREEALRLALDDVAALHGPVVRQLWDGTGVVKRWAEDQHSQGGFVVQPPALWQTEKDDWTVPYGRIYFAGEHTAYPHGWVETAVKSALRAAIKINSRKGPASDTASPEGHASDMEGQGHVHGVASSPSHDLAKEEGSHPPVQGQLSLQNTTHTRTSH

This assay addresses recombinant IL4I1 (Homo sapiens (Human), UniProt Q96RQ9). The assay can be described thus: IL4I1 Enzymatic Assay (Amplex Red/HRP coupled H2O2 detection). As to conditions: 1 nM IL4I1, 1 mM each Phe/Tyr/Trp, four-hour pre-incubation, 120 minutes reaction, top compound concentration of 10000 nM. It counts as biochemical. A digest of the protocol: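 Recombinant IL4I1 (1 nM final) was pre-incubated 4 h at ambient temperature with compound in 50 mM Hepes pH 7.0, 0.005% Tween20. Reaction ran 120 min with 1 mM each Phe/Tyr/Trp, 0.05 mM Amplex Red and 1 U/mL HRP. Resorufin fluorescence (544/590 nm) was read, and EC50 fitted from ten-point 1:3 titrations (top 10000 nM) by four-parameter regression.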
As to `N#CC1CC(Oc2ccc(Cc3cc4ccccc4[nH]c3=O)cc2)C1` (centres unmarked) [Example 146, 3-(4-((2-oxo-1,2-dihydroquinolin-3-yl)methyl)phenoxy)cyclobutane-1-carbonitrile], the concentration giving a half-maximal response (EC50) was 1.7 nM.

Turning to `CS(=O)(=O)NCc1ccc(Cc2cc3ccccc3[nH]c2=O)cc1` [Example 73, N-(4-((2-oxo-1,2-dihydroquinolin-3-yl)methyl)benzyl)methanesulfonamide], the EC50 was found to be 6.4 nM.

On to `NS(=O)(=O)c1ccc(Cc2cc3ccccc3[nH]c2=O)cc1Cl` [Example 70, 2-chloro-4-((2-oxo-1,2-dihydroquinolin-3-yl)methyl)benzenesulfonamide], for which the 50% effective concentration (EC50) was found to be 8.9 nM.

For `CC(C)(C#N)n1cc(Cc2cc3ccccc3[nH]c2=O)cn1` [Example 148, 2-methyl-2-(4-((2-oxo-1,2-dihydroquinolin-3-yl)methyl)-1H-pyrazol-1-yl)propanenitrile], the EC50 came out at 258 nM.

With `O=C1COc2c(F)cc(Cc3cc4ccccc4[nH]c3=O)cc2N1` [Example 176, 8-Fluoro-6-((2-oxo-1,2-dihydroquinolin-3-yl)methyl)-2H-benzo[b][1,4]oxazin-3(4H)-one], the concentration for a half-maximal effect (EC50) is 1.4 nM. As to `CC1(O)CN(c2ccc(Cc3cc4ccccc4[nH]c3=O)cn2)C(=O)O1` (racemic) [Example 51, rac-5-hydroxy-5-methyl-3-(5-((2-oxo-1,2-dihydroquinolin-3-yl)methyl)pyridin-2-yl)oxazolidin-2-one], the EC50 was 29.1 nM. For `N#CC1(c2ccc(Cc3cc4ccccc4[nH]c3=O)cc2)CC1` [Example 98, 1-(4-((2-oxo-1,2-dihydroquinolin-3-yl)methyl)phenyl)cyclopropane-1-carbonitrile] the value was 1 nM; for `O=c1[nH]c2ccccc2cc1Cc1ccc(N2CCCS2(=O)=O)nc1` [Example 46, 3-((6-(1,1-dioxidoisothiazolidin-2-yl)pyridin-3-yl)methyl)quinolin-2(1H)-one], 5.9 nM. With `CC1(O)CC(c2ccc(Cc3cc4ccccc4[nH]c3=O)cc2)C1` (centres unmarked) [Example 161, 3-(4-(3-hydroxy-3-methylcyclobutyl)benzyl)quinolin-2(1H)-one] the figure was 3.2 nM; with `NS(=O)(=O)c1cccc(Cc2cc3cc(F)ccc3[nH]c2=O)c1` [Example 120, 3-((6-fluoro-2-oxo-1,2-dihydroquinolin-3-yl)methyl)benzenesulfonamide], 3.6 nM.

Turning to `O=C1CCc2ccc(Cc3cc4ccccc4[nH]c3=O)cc21` [Example 75, 3-((3-oxo-2,3-dihydro-1H-inden-5-yl)methyl)quinolin-2(1H)-one], the EC50 turned out to be 0.9 nM.

For `CC(=O)NCc1ccc(Cc2cc3ccccc3[nH]c2=O)cc1` [Example 124, N-(4-((2-oxo-1,2-dihydroquinolin-3-yl)methyl)benzyl)acetamide], the EC50 stood at 3.5 nM. For `CC(=O)Nc1ccc(Cc2cc3ccccc3[nH]c2=O)cn1` [Example 150, N-(5-((2-oxo-1,2-dihydroquinolin-3-yl)methyl)pyridin-2-yl)acetamide] the value was 16.9 nM; for `CC1(N)CN(c2ccc(Cc3cc4ccccc4[nH]c3=O)cc2)C1` [compound 60, 3-(4-(3-amino-3-methylazetidin-1-yl)benzyl)quinolin-2(1H)-one], 19.9 nM. As to `CC(C)(O)c1ccc(Cc2cc3ccccc3[nH]c2=O)cc1Cl` [Example 80, 3-(3-chloro-4-(2-hydroxypropan-2-yl)benzyl)quinolin-2(1H)-one], the EC50 is 3.3 nM. With `N#Cc1c[nH]c2ccc(Cc3cc4ccccc4[nH]c3=O)nc12` [Example 96, 5-((2-oxo-1,2-dihydroquinolin-3-yl)methyl)-1H-pyrrolo[3,2-b]pyridine-3-carbonitrile], the EC50 came out at 2 nM. Regarding `CC1(c2nnc(Cc3cc4ccccc4[nH]c3=O)o2)CC1` [Example 42, 3-((5-(1-methylcyclopropyl)-1,3,4-oxadiazol-2-yl)methyl)quinolin-2(1H)-one], the EC50 stood at 21 nM.

For the origin of these results see patent US20240287022A1 (Merck Sharp & Dohme LLC, priority 2021, published 2024).
